Assays:
PI3Kα = PI3Kα (Homo sapiens (Human), UniProt P42336); test: Biochemical evaluation of activity of PI3Kα (Kinase-Glo luminescence kinase assay); conditions: 25 μM ATP, 50 μM PIP2, 1 h at room temperature
Procedure: The potency of compounds in the present intention against PI3Kα was assessed by in vitro kinase assay. The kinase activity of PI3Kα was determined by detecting the level of ADP produced in the kinase reaction with luciferase-based luminescence detection.
The Kinase-Glo™ Kinase Assay Kit was purchased from Promega. All assays were performed at room temperature using white OptiPlate™-384 well plate. The PI3Kα kinase was purchased from Invitrogen. The substrate was PIP2 from Invitrogen. The kinase buffer contained 50 mM Hepes (pH 7.5), 3 mM MgCl2, 100 mM NaCl, 1 mM EGTA, 0.03% CHAPS and 2 mM DTT. […] The substrate solution contained 100 μM PIP2 and 50 μM ATP. The test compound was diluted to 10 mM in 100% DMSO and serially diluted three times into ten different concentrations in 100% DMSO. The compound diluted in 100% DMSO was diluted 25-fold in 1×kinase buffer. 2.5 μL of the diluted compound solution and 2.5 μL PI3Kα kinase solution were added to each well of a 384-well plate. The reaction was initiated by addition of 5 μL substrate solution to each well. […] The plate was then covered and the reaction was allowed to proceed for one hour at room temperature, followed by the addition of 10 μL Kinase-Glo™ reagent to each well to stop the reaction.
The percentage of inhibition was calculated as follows: Inhibition %=100−(max−sample RLU)/(max−min)*100
wherein sample RLU was the luminescence reading for a given compound concentration, min was the reading of DMSO control, and max was the reading of the enzyme-free control. The IC50 value was calculated with the XLfit program in Excel.

[1] = test system: human lung cancer cell NCI-H460; test: Tumor cell viability by MTT assay; type: cell-based
Procedure: After 24 hours, 100 μL of fresh medium containing different concentrations of test compounds and the corresponding solvent control was added into each well to a final concentration of DMSO less than 0.2%. Six to nine concentration groups were set for each test compound, and three parallel wells were set for each group. The plate was incubated at 5% CO2, 37° C. for 96 hours. 20 μL of freshly prepared PBS solution containing 5 mg/mL MTT was added to each well. The supernatant was discarded after incubation for another 4 hours. 150 μL DMSO was added to each well to dissolve the MTT formazan precipitate. After being mixed by a micro-oscillator, the optical density (OD) was measured at the wavelength of 570 nm, and the tumor cells treated with DMSO were used as a control group.

Sequence of PI3Kα (P42336 whole entry): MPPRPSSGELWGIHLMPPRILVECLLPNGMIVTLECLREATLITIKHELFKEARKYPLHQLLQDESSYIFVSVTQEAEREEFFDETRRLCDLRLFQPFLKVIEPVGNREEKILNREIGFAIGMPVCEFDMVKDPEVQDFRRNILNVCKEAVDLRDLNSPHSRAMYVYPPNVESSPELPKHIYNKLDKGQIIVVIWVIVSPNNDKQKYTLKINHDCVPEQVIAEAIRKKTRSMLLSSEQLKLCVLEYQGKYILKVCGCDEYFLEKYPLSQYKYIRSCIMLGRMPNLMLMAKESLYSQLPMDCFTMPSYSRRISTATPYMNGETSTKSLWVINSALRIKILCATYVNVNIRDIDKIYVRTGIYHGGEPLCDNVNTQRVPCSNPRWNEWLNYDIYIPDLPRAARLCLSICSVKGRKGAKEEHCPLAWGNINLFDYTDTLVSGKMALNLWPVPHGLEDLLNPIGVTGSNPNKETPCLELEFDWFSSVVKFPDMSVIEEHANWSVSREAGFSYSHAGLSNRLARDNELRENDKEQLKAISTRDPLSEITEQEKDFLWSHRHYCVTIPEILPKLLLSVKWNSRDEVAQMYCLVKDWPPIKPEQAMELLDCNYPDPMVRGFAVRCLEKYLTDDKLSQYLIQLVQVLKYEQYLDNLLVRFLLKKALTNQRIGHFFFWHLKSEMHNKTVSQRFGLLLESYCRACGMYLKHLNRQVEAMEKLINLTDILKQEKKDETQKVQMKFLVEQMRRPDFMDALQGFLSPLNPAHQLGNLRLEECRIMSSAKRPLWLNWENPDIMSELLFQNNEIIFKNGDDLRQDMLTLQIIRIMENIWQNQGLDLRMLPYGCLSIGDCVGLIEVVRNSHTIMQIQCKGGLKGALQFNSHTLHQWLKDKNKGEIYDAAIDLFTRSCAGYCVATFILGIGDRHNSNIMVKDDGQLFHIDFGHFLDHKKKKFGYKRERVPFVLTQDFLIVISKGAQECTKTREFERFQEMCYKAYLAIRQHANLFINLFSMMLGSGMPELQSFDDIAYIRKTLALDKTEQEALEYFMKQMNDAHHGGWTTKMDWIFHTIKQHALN
Sequence of PI3Kα (P27986 whole entry partner): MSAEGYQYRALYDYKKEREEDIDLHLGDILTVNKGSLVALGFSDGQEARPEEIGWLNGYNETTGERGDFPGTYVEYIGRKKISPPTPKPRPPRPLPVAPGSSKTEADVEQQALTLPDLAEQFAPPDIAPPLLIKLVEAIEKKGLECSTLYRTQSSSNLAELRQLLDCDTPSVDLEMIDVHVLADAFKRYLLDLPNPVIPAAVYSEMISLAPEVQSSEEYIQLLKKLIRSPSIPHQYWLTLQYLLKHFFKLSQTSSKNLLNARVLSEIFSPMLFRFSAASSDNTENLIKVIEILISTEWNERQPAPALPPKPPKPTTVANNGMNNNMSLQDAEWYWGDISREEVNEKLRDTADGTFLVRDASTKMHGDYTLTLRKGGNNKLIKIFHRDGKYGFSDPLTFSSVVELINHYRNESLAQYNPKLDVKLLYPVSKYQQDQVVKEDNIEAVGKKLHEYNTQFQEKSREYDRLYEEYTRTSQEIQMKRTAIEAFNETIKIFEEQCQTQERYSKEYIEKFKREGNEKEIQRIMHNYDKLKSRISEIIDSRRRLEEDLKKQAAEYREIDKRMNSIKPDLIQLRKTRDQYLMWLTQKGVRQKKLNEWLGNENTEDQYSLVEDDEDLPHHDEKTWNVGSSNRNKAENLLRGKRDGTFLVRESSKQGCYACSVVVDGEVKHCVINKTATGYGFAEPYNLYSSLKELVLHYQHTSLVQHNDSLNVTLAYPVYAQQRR

Row | Compound | IC50 (PI3Kα) | IC50 ([1]; Homo sapiens, NCI-H460, 96 h) | IC50 ([1]; 96 hours)
1 | COc1ncc(-c2cc(OC)c3nc(N)nc(C)c3c2)cc1NS(=O)(=O)c1ccc(F)cc1F [Example 28, N-(5-(2-amino-8-methoxy-4-methylquinazolin-6-yl)-2-methoxypyridin-3-yl)-2,4-difluorobenzenesulfonamide] | 1.2 nM | 280 nM | –
2 | COc1ncc(-c2cc(OC3CCOCC3)c3ncnc(C)c3c2)cc1NS(=O)(=O)c1ccc(F)cc1Cl [Example 45, N-(2-methoxy-5-(4-methyl-8-((tetrahydro-2H-pyran-4-yl)oxy)quinazolin-6-yl)pyridin-3-yl)-2-chloro-4-fluorobenzenesulfonamide] | 0.92 nM | 45 nM | –
3 | COc1ncc(-c2cc(OC3CCOCC3)c3nc(N)nc(C)c3c2)cc1NS(=O)(=O)c1ccc(F)cc1Cl [Example 2, N-(5-(2-amino-4-methyl-8-((tetrahydro-2H-pyran-4-yl)oxy)quinazolin-6-yl)-2-methoxypyridin-3-yl)-2-chloro-4-fluorobenzenesulfonamide] | 0.72 nM | 17 nM | –
4 | COc1ncc(-c2cc(OCC3CC3)c3nc(N)nc(C)c3c2)cc1NS(=O)(=O)c1ccc(F)cc1F [Example 27, N-(5-(2-amino-8-(cyclopropylmethoxy)-4-methylquinazolin-6-yl)-2-methoxypyridin-3-yl)-2,4-difluorobenzenesulfonamide] | 1.7 nM | 200 nM | –
5 | COc1ncc(-c2cc(O[C@@H]3CCOC3)c3ncnc(C)c3c2)cc1NS(=O)(=O)c1ccc(F)cc1F [Example 49, (R)—N-(2-methoxy-5-(4-methyl-8-((tetrahydrofuran-3-yl)oxy)quinazolin-6-yl)pyridin-3-yl)-2,4-difluorobenzenesulfonamide] | 0.76 nM | 34 nM | –
6 | COc1ncc(-c2cc(OCC3CCN(C)CC3)c3ncnc(C)c3c2)cc1NS(=O)(=O)c1ccc(F)cc1F [Example 66, N-(2-methoxy-5-(4-methyl-8-((1-methylpiperidin-4-yl)methoxy)quinazolin-6-yl)pyridin-3-yl)-2,4-difluoro-benzenesulfonamide] | 1.7 nM | 230 nM | –
7 | COc1ncc(-c2cc(O[C@H]3CC[C@H](OC)CC3)c3nc(N)nc(C)c3c2)cc1NS(=O)(=O)c1ccc(F)cc1F (single isomer, unassigned) [Example 18-2, N-(5-(2-amino-8-((4-methoxycyclohexyl)oxy)-4-methylquinazolin-6-yl)-2-methoxypyridin-3-yl)-2,4-difluorobenzenesulfonamide] | 0.8 nM | – | 57 nM
8 | COc1ncc(-c2cc(OC3CCOCC3)c3ncnc(C)c3c2)cc1NS(C)(=O)=O [Example 47, N-(2-methoxy-5-(4-methyl-8-((tetrahydro-2H-pyran-4-yl)oxy)quinazolin-6-yl)pyridin-3-yl)methanesulfonamide] | 1.4 nM | 570 nM | –
9 | COc1ncc(-c2cc(OC3CCOCC3)c3nc(N)nc(C)c3c2)cc1NS(C)(=O)=O [Example 5, N-(5-(2-amino-4-methyl-8-((tetrahydro-2H-pyran-4-yl)oxy)quinazolin-6-yl)-2-methoxypyridin-3-yl)methanesulfonamide] | 2.7 nM | 860 nM | –
10 | COc1ncc(-c2cc(OC(C)C)c3ncnc(C)c3c2)cc1NS(=O)(=O)c1ccc(F)cc1F [Example 69, N-(5-(8-isopropoxy-4-methylquinazolin-6-yl)-2-methoxypyridin-3-yl)-2,4-difluorobenzenesulfonamide] | 2.2 nM | 50 nM | –
11 | CNc1nc(C)c2cc(-c3cnc(OC)c(NS(=O)(=O)c4ccc(F)cc4F)c3)cc(OC3CCOC(C)(C)C3)c2n1 (stereo not drawn) [Example 37, N-(5-(8-((2,2-dimethyltetrahydro-2H-pyran-4-yl)oxy)-4-methyl-2-(methylamino)quinazolin-6-yl)-2-methoxypyridin-3-yl)-2,4-difluorobenzenesulfonamide] | 2.3 nM | 250 nM | –
12 | COc1ncc(-c2cc(OCC3CCOCC3)c3nc(N)nc(C)c3c2)cc1NS(=O)(=O)c1ccc(F)cc1F [Example 13, N-(5-(2-amino-4-methyl-8-((tetrahydro-2H-pyran-4-yl)methoxy)quinazolin-6-yl)-2-methoxypyridin-3-yl)-2,4-difluorobenzenesulfonamide] | 0.84 nM | 21 nM | –
13 | COc1ncc(-c2cc(O[C@H]3CCOC3)c3ncnc(C)c3c2)cc1NS(C)(=O)=O [Example 52, (S)—N-(2-methoxy-5-(4-methyl-8-((tetrahydrofuran-3-yl)oxy)quinazolin-6-yl)pyridin-3-yl)methanesulfonamide] | 2.1 nM | 670 nM | –
14 | COc1ncc(-c2cc(O[C@@H]3CCOC3)c3ncnc(C)c3c2)cc1NS(C)(=O)=O [Example 50, (R)—N-(2-methoxy-5-(4-methyl-8-((tetrahydrofuran-3-yl)oxy)quinazolin-6-yl)pyridin-3-yl)methanesulfonamide] | 2.2 nM | 790 nM | –
15 | CNc1nc(C)c2cc(-c3cnc(OC)c(NS(=O)(=O)c4ccc(F)cc4F)c3)cc(OCC3CCOC3)c2n1 (stereo not drawn) [Example 38, N-(2-methoxy-5-(4-methyl-2-(methylamino)-8-((tetrahydrofuran-3-yl)methoxy)quinazolin-6-yl)pyridin-3-yl)-2,4-difluorobenzenesulfonamide] | 2.3 nM | 310 nM | –
16 | COc1ncc(-c2cc(O[C@H]3CCOC3)c3nc(N)nc(C)c3c2)cc1NS(C)(=O)=O [Example 12, (S)—N-(5-(2-amino-4-methyl-8-((tetrahydrofuran-3-yl)oxy)quinazolin-6-yl)-2-methoxypyridin-3-yl)methanesulfonamide] | 4.5 nM | 2300 nM | –
17 | COc1ncc(-c2cc(OCC3CCOCC3)c3nc(N)nc(C)c3c2)cc1NS(C)(=O)=O [Example 14, N-(5-(2-amino-4-methyl-8-((tetrahydro-2H-pyran-4-yl)methoxy)quinazolin-6-yl)-2-methoxypyridin-3-yl)methanesulfonamide] | 3.3 nM | 2000 nM | –
18 | COc1ncc(-c2cc(OC3CCOCC3)c3nc(NC(C)=O)nc(C)c3c2)cc1NS(=O)(=O)c1ccc(F)cc1F [Example 42, N-(6-(5-(2,4-difluorophenylsulfonamido)-6-methoxypyridin-3-yl)-4-methyl-8-((tetrahydro-2H-pyran-4-yl)oxy)quinazolin-2-yl)acetamide] | 1.1 nM | 530 nM | –
19 | COCCOc1cc(-c2cnc(OC)c(NS(=O)(=O)c3ccc(F)cc3F)c2)cc2c(C)nc(N)nc12 [Example 25, N-(5-(2-amino-8-(2-methoxyethoxy)-4-methylquinazolin-6-yl)-2-methoxypyridin-3-yl)-2,4-difluorobenzenesulfonamide] | 1.6 nM | 200 nM | –
20 | COc1ncc(-c2cc(OC(C)C)c3nc(N)nc(C)c3c2)cc1NS(=O)(=O)c1ccc(F)cc1F [Example 26, N-(5-(2-amino-8-isopropoxy-4-methylquinazolin-6-yl)-2-methoxypyridin-3-yl)-2,4-difluorobenzenesulfonamide] | 0.79 nM | 140 nM | –
21 | COc1ncc(-c2cc(OCCn3cccn3)c3ncnc(C)c3c2)cc1NS(=O)(=O)c1ccc(F)cc1F [Example 64, N-(5-(8-(2-(1H-pyrazol-1-yl)ethoxy)-4-methylquinazolin-6-yl)-2-methoxypyridin-3-yl)-2,4-difluorobenzenesulfonamide] | 1.5 nM | 390 nM | –

Source: patent US11534443B2, “Quinazoline compounds, preparation method, use, and pharmaceutical composition thereof” (INSTITUTE OF MATERIA MEDICA, CHINESE ACADEMY OF MEDICAL …, priority 2016, dated 2022)
